The experiment addresses T1, CDK2 (Homo sapiens, UniProt P24941).
T1 construct: High-Throughput Measurement of Cellular Endogenous CDK2; endogenous in cells; host or cells: OVCAR3
Nature of the experiment: Inhibition of CDK2: phospho-Rb (S807/811) HTRF measurement in OVCAR3 cells. The format is cell-based. The note with it: 24 h compound treatment, read-out: pRb (nM), IC50 in pRB(S807/811) assay. The procedure: Phosphorylation of RB protein at S807/811 were measured using HTRF phospho-RB cellular kits (Cat #64RBS807PEG) from Cisbio.
On Day 1, OVCAR3 (dependent on CDK2) cells were seeded into 96-well tissue-culture treated plates at 20,000 cells/well in 200 μL and incubated overnight at 37° C. in CO2 atmosphere. On Day 2, the cells were treated with test compounds at concentrations from 0.3 to 10,000 nM using HP D300 digital dispenser. Twenty-four hours after compound treatment, cell culture media was removed by flicking the plate and tapping the plate against clean paper towel. Immediately 30 μL 1× lysis buffer was supplemented from the kit and the plate was incubated at room temperature on shaker for 30 min. After homogenization by pipetting up and down, 8 μL cell lysate from 96-well cell culture plate was transferred to 384-well small volume white detection plate. 2 μL premixed detection solution was added and the plate was covered with sealer. To prepare the detection solution, d2 conjugated-phospho-RB antibody and Eu-cryptate conjugated phosphor-RB antibody were diluted into detection buffer following manufacturer's instruction. Detection plates were incubated for 4 h at room temperature and read on ClarioStar (BMG Labtech) in TR-FRET mode (665 nM and 620 nM). The TR-FRET ratio (665 nM/620 nM) was plotted against the compound concentration and normalized to DMSO controls. Half maximal inhibition concentration (IC50) values are calculated with a four-parameter logistic fit using GraphPad Prism (version 8; La Jolla, CA).
In the table below, A indicates a IC50 of less than 0.1 μM; B indicates a IC50 of greater than or equal to 0.1 μM but less than 0.5 μM; C indicates a IC50 of greater than or equal to 0.5 μM but less than 1 μM; and D indicates a […] of greater than or equal to 1 μM but less than 10 μM.
(TR-FRET usually uses a lanthanide donor and a delayed reading to cut background.)

SMILES strings stand for the structures.

For the compound `O=C1CCC(N2CCN(Cc3cccc(S(=O)(=O)N4CCC(Nc5ncc(C(F)(F)F)c(-c6cnn(CC(F)(F)F)c6)n5)CC4)c3)C3CC32)C(=O)N1` (centres unmarked) [Example 63, 3-(5-(3-((4-((4-(1-(2,2,2-trifluoro-ethyl)-1H-pyrazol-4-yl)-5-(trifluoromethyl)-pyrimidin-2-yl)amino)-piperidin-1-yl)-sulfonyl)benzyl)-2,5-diazabicyclo[4.1.0]-heptan-2-yl)-piperidine-2,6-dione], the IC50 lay within 100 to 500 nM. Turning to `Cn1nc(N2CCC(=O)NC2=O)c2ccc(C3CCN(CCc4cccc(S(=O)(=O)[C@H]5CC[C@H](Nc6ncc(C(F)(F)F)c(-c7cnn(CC(F)(F)F)c7)n6)CC5)c4)CC3)cc21` [Example 95, 1-(1-methyl-6-(1-(3-(((1r,4r)-4-((4-(1-(2,2,2-trifluoroethyl)-1H-pyrazol-4-yl)-5-(trifluoromethyl)pyrimidin-2-yl)-amino)-cyclohexyl)sulfonyl)phenethyl)piperidin-4-yl)-1H-indazol-3-yl)dihydro-pyrimidine-2,4(1H,3H)-dione], the IC50 is 100 to 500 nM. Under `Cn1nc(N2CCC(=O)NC2=O)c2ccc(C3CCN(Cc4cc(S(=O)(=O)N5CCC(Nc6ncc(C(F)(F)F)c(-c7cnn(CC(F)(F)F)c7)n6)CC5)ccc4C(F)(F)F)CC3(F)F)cc21` (centres unmarked) [Example 55] stands 1000 to 10000 nM; under `Cn1nc(N2CCC(=O)NC2=O)c2ccc(C3CCN(CC(C)(C)Cc4cccc(S(=O)(=O)N5CCC(Nc6ncc(C(F)(F)F)c(-c7cnn(CC(F)(F)F)c7)n6)CC5)c4)CC3)cc21` [Example 98, 1-(6-(1-(2,2-dimethyl-3-(3-((4-((4-(1-(2,2,2-trifluoroethyl)-1H-pyrazol-4-yl)-5-(trifluoromethyl)pyrimidin-2-yl)amino)-piperidin-1-yl)sulfonyl)-phenyl)propyl)-piperidin-4-yl)-1-methyl-1H-indazol-3-yl)dihydro-pyrimidine-2,4(1H,3H)-dione], less than 100 nM; under `O=C1CCN(C2CCCN(Cc3cccc(S(=O)(=O)N4CCC(Nc5ncc(C(F)(F)F)c(-c6cnn(CC(F)(F)F)c6)n5)CC4)c3)C2)C(=O)N1` (centres unmarked) [Example 80, 1-(1-(3-((4-((4-(1-(2,2,2-trifluoro-ethyl)-1H-pyrazol-4-yl)-5-(trifluoromethyl)-pyrimidin-2-yl)amino)-piperidin-1-yl)sulfonyl)benzyl)-piperidin-3-yl)dihydropyrimidine-2,4(1H,3H)-dione], 100 to 500 nM.

As for `Cn1nc(N2CCC(=O)NC2=O)c2ccc(C3CCN(Cc4cccc(S(=O)(=O)N5CC[C@H](Nc6ncc(C(F)(F)F)c(-c7cnn(CC(F)F)c7)n6)[C@H](F)C5)c4)CC3)cc21` (racemic) [Example 37], the IC50 is less than 100 nM. Under `Cn1nc(N2CCC(=O)NC2=O)c2ccc(N3CCC(CN4CCN(S(=O)(=O)N5CCC(Nc6ncc(C(F)(F)F)c(-c7cnn(CC(F)(F)F)c7)n6)CC5)CC4)CC3)cc21` [Example 97, 1-(1-methyl-6-(4-((4-((4-((4-(1-(2,2,2-trifluoroethyl)-1H-pyrazol-4-yl)-5-(trifluoromethyl)pyrimidin-2-yl)amino)-piperidin-1-yl)sulfonyl)piperazin-1-yl)-methyl)piperidin-1-yl)-1H-indazol-3-yl)dihydropyrimidine-2,4(1H,3H)-dione] stands 100 to 500 nM.

As for `O=C1CCN(c2ccc(N3CCN(Cc4cccc(S(=O)(=O)N5CCC(Nc6ncc(C(F)(F)F)c(-c7cnn(-c8ccccc8F)c7)n6)CC5)c4)CC3)cc2)C(=O)N1` [Example 71, 1-(4-(4-(3-((4-((4-(1-(2-fluorophenyl)-1H-pyrazol-4-yl)-5-(trifluoromethyl)-pyrimidin-2-yl)amino)piperidin-1-yl)sulfonyl)benzyl)piperazin-1-yl)-phenyl)dihydropyrimidine-2,4(1H,3H)-dione], the IC50 lay in the range of 100 to 500 nM. Under `Cn1nc(N2CCC(=O)NC2=O)c2ccc(C3CCN(C(c4cccc(S(=O)(=O)N5CCC(Nc6ncc(C(F)(F)F)c(-c7cnn(CC(F)(F)F)c7)n6)CC5)c4)C(F)(F)F)CC3)cc21` (centres unmarked) [Example 91, 1-(1-methyl-6-(1-(2,2,2-trifluoro-1-(3-((4-((4-(1-(2,2,2-trifluoroethyl)-1H-pyrazol-4-yl)-5-(trifluoromethyl)-pyrimidin-2-yl)amino)piperidin-1-yl)-sulfonyl)phenyl)ethyl)piperidin-4-yl)-1H-indazol-3-yl)dihydro-pyrimidine-2,4(1H,3H)-dione] stands 100 to 500 nM; under `Cn1nc(N2CCC(=O)NC2=O)c2ccc(C3CCN(Cc4cccc(S(=O)(=O)N5CCC(Nc6ncc(C(F)(F)F)c(-c7cnn(CC(F)(F)F)c7)n6)CC5)c4C(F)(F)F)CC3)cc21` [Example 87, 1-(1-methyl-6-(1-(3-((4-((4-(1-(2,2,2-trifluoroethyl)-1H-pyrazol-4-yl)-5-(trifluoromethyl)pyrimidin-2-yl)-amino)-piperidin-1-yl)sulfonyl)-2-(trifluoro-methyl)benzyl)piperidin-4-yl)-1H-indazol-3-yl)dihydro-pyrimidine-2,4(1H,3H)-dione], 500 to 1000 nM; under `Cn1nc(N2CCC(=O)NC2=O)c2ccc(C3CCN(Cc4cccc(S(=O)(=O)N5CC[C@@H](Nc6ncc(C(F)(F)F)c(-c7cnn(CC(F)(F)F)c7)n6)[C@@H](F)C5)c4)CC3(F)F)cc21` (stereo partly drawn) [Example 66, 1-(6-(3,3-difluoro-1-(3-(((3S,4R)-3-fluoro-4-((4-(1-(2,2,2-trifluoroethyl)-1H-pyrazol-4-yl)-5-(trifluoromethyl)-pyrimidin-2-yl)amino)piperidin-1-yl)-sulfonyl)benzyl)piperidin-4-yl)-1-methyl-1H-indazol-3-yl)dihydro-pyrimidine-2,4(1H,3H)-dione], 1000 to 10000 nM. As to `O=C1CCC(N2CCN(Cc3cccc(S(=O)(=O)N4CCC(Nc5ncc(C(F)(F)F)c(-c6cnn(CC(F)(F)F)c6)n5)CC4)c3)CC2)C(=O)N1` (centres unmarked) [Example 76, 3-(4-(3-((4-((4-(1-(2,2,2-trifluoro-ethyl)-1H-pyrazol-4-yl)-5-(trifluoromethyl)-pyrimidin-2-yl)amino)-piperidin-1-yl)-sulfonyl)benzyl)piperazin-1-yl)-piperidine-2,6-dione], the IC50 was in the range of 100 to 500 nM. Under `O=C1CCC(N2Cc3cc(N4CCC(CN5CCN(c6cccc(S(=O)(=O)N7CCC(Nc8ncc(C(F)(F)F)c(-c9cnn(CC(F)(F)F)c9)n8)CC7)c6)CC5)CC4)ccc3C2=O)C(=O)N1` (centres unmarked) [Example 45, 3-(1-oxo-5-(4-((4-(3-((4-((4-(1-(2,2,2-trifluoroethyl)-1H-pyrazol-4-yl)-5-(trifluoromethyl)pyrimidin-2-yl)-amino)-piperidin-1-yl)sulfonyl)-phenyl)piperazin-1-yl)methyl)-piperidin-1-yl)isoindolin-2-yl)-piperidine-2,6-dione] stands 100 to 500 nM; under `Cn1nc(N2CCC(=O)NC2=O)c2ccc(C3CCN(CC4CCN(S(=O)(=O)[C@H]5CC[C@H](Nc6ncc(C(F)(F)F)c(-c7cnn(CC(F)(F)F)c7)n6)CC5)CC4)CC3)cc21` [Example 94, 1-(1-methyl-6-(1-((1-(((1r,4r)-4-((4-(1-(2,2,2-trifluoroethyl)-1H-pyrazol-4-yl)-5-(trifluoromethyl)pyrimidin-2-yl)-amino)cyclohexyl)sulfonyl)piperidin-4-yl)methyl)piperidin-4-yl)-1H-indazol-3-yl)dihydropyrimidine-2,4(1H,3H)-dione], 100 to 500 nM. In the case of `O=C1CCC(Nc2ccc(N3CCN(Cc4cccc(S(=O)(=O)N5CCC(Nc6ncc(C(F)(F)F)c(-c7cnn(CC(F)(F)F)c7)n6)CC5)c4)CC3)cc2)C(=O)N1` (centres unmarked) [Example 53] it was less than 100 nM; in that of `O=C1CCN(C2CCN(Cc3cccc(S(=O)(=O)N4CCC(Nc5ncc(C(F)(F)F)c(-c6cnn(CC(F)(F)F)c6)n5)CC4)c3)CC2)C(=O)N1` [Example 46], 100 to 500 nM.

For `Cn1nc(N2CCC(=O)NC2=O)c2ccc(N3CC4CCC(C3)N4Cc3cccc(S(=O)(=O)N4CC[C@H](Nc5ncc(C(F)(F)F)c(-c6cnn(CC(F)(F)F)c6)n5)[C@H](F)C4)c3)cc21` [Example 85, 1-(6-(8-(3-(((3R,4S)-3-fluoro-4-((4-(1-(2,2,2-trifluoroethyl)-1H-pyrazol-4-yl)-5-(trifluoromethyl)pyrimidin-2-yl)-amino)-piperidin-1-yl)sulfonyl)benzyl)-3,8-diazabicyclo[3.2.1]octan-3-yl)-1-methyl-1H-indazol-3-yl)dihydro-pyrimidine-2,4(1H,3H)-dione], the IC50 was in the range of 100 to 500 nM.

The record behind these values is US20260274853A1, “BIFUNCTIONAL COMPOUNDS CONTAINING PYRIMIDINE DERIVATIVES FOR DEGRADING CYCLIN-DEPENDENT KINASE 2 VIA UBIQUITIN PROTEASOME PATHWAY” (NIKANG THERAPEUTICS, INC., priority 2022, published 2026).
